# Assay results published in PMC6112376, “Comprehensive Analyses and Prioritization of Tox21 10K Chemicals Affecting Mitochondrial Function by in-Depth Mechanistic Studies” (Environmental Health Perspectives, 2018).
# Read-outs that look alike come from different tables or passages of the source.
# Key:
# [1] = system: rat primary hepatocytes; test: MMP assay in rat primary hepatocytes; conditions: for IC50: Rattus norvegicus, Hepatocyte; for MMP assays efficacy (%) Rat Hepatocytes: mean ± SD of three experiments
# [2] = system: hNSC; test: MMP assay in human neural stem cells (hNSC); type: cell-based; conditions: Homo sapiens, Neural stem cell; 1 h treatment; fresh re-sourced stocks; mean±SD of three experiments; read-out: hNSC IC50 (MMP)
# [3] = system: isolated rat liver mitochondria; test: Oxygen consumption, Clark-type oxygen electrode; type: biochemical; conditions: for I-ADP, % of control (O2 consumption rate): glutamate/malate driven state 3 respiration; for I-ADP, % of control (O2 consumption rate) / I-sub, % of control (O2 consumption rate) / II-ADP, % of control (O2 consumption rate) / II-sub, % of control (O2 consumption rate): isolated rat liver mitochondria; for I-sub, % of control (O2 consumption rate): glutamate/malate driven state 4 respiration; for II-ADP, % of control (O2 consumption rate): succinate-driven state 3 respiration; for II-sub, % of control (O2 consumption rate): succinate-driven state 4 respiration; for Potential Mechanism: mitochondrial respiration in isolated rat liver mitochondria, Clark type oxygen electrode, over tested concentrations
# [4] = system: HepG2 cells; test: Intracellular ATP content (cell viability) assay; type: cell-based, human; conditions: 40 h treatment, mean±SD of three experiments
# [5] = system: Caenorhabditis elegans strain PE255; test: In vivo C. elegans ATP status assay
# [6] = system: HepG2 cells; test: cells; conditions: Homo sapiens; for Emax: HepG2, read-out: MMP assays efficacy (%) HepG2
# [7] = system: HepG2 cells; test: ROS-Glo hydrogen peroxide (ROS) assay; type: cell-based, human; conditions: Homo sapiens, HepG2; 2 h treatment; mean±SD of three experiments; read-out: ROS (HepG2) EC50
# [8] = system: Caenorhabditis elegans (Bristol N2); test: C. elegans larval development and growth assay
# [9] = system: HepG2 cells; conditions: cited from earlier work
# [10] = system: Nrf2/ARE (ARE-bla HepG2 cells); test: ARE β-lactamase reporter gene assay; type: cell-based, human; conditions: Homo sapiens, HepG2; 16 h incubation; mean±SD of three experiments; read-out: ARE (HepG2) EC50
# [11] = system: HeLa cells expressing YFP-Parkin; test: Parkin translocation assay; type: cell-based, human; conditions: HeLa cells stably expressing YFP-Parkin; treated for 2 h
# [12] = read-out: MMP assays IC50 (µM) Rat Hepatocytes
# [13] = HepG2, read-out: MMP assays IC50 (µM) HepG2
smiles,measurement,setting,value
"O=C(O)c1cccnc1Nc1cccc(C(F)(F)F)c1 [Niflumic acid, reference compound]",Rat hepatocytes (efficacy) (MMP),"[1]; % of positive control, mean±SD of three experiments",−98.8±9.27%
same,IC50,"[1]; 1 h, read-out: Rat hepatocytes IC50 (MMP)",19.9 ± 1.35 µM
same,IC50,[1]; [12],6.71 ± 1.14 µM
same,MMP assays efficacy (%) Rat Hepatocytes,[1],-127±56%
same,IC50,[2],38.3 ± 4.41 µM
same,"I-ADP, % of control (O2 consumption rate)",[3]; 0.032 µM,91 (32.6) % of control
same,"I-sub, % of control (O2 consumption rate)",[3]; 0.032 µM,116 (11.1) % of control
same,"II-ADP, % of control (O2 consumption rate)",[3]; 0.032 µM,90 (48.1) % of control
same,"II-sub, % of control (O2 consumption rate)",[3]; 0.032 µM,110 (18.1) % of control
same,"I-ADP, % of control (O2 consumption rate)",[3]; 0.16 µM,82 (29.2) % of control
same,"I-sub, % of control (O2 consumption rate)",[3]; 0.16 µM,111 (10.7) % of control
same,"II-ADP, % of control (O2 consumption rate)",[3]; 0.16 µM,101 (54.0) % of control
same,"II-sub, % of control (O2 consumption rate)",[3]; 0.16 µM,124 (20.4) % of control
same,"I-ADP, % of control (O2 consumption rate)",[3]; 0.8 µM,91 (32.5) % of control
same,"I-sub, % of control (O2 consumption rate)",[3]; 0.8 µM,131 (12.6) % of control
same,"II-ADP, % of control (O2 consumption rate)",[3]; 0.8 µM,89 (47.6) % of control
same,"II-sub, % of control (O2 consumption rate)",[3]; 0.8 µM,135 (22.1) % of control
same,"I-ADP, % of control (O2 consumption rate)",[3]; 4 µM,86 (30.8) % of control
same,"I-sub, % of control (O2 consumption rate)",[3]; 4 µM,180 (17.3) % of control
same,"II-ADP, % of control (O2 consumption rate)",[3]; 4 µM,96 (51.1) % of control
same,"II-sub, % of control (O2 consumption rate)",[3]; 4 µM,221 (36.2) % of control
same,"I-ADP, % of control (O2 consumption rate)",[3]; 20 µM,101 (36.0) % of control
same,"I-sub, % of control (O2 consumption rate)",[3]; 20 µM,380 (36.5) % of control
same,"II-ADP, % of control (O2 consumption rate)",[3]; 20 µM,54 (28.9) % of control
same,"II-sub, % of control (O2 consumption rate)",[3]; 20 µM,195 (32.0) % of control
same,"I-ADP, % of control (O2 consumption rate)",[3]; 100 µM,70 (32.1) % of control
same,"I-sub, % of control (O2 consumption rate)",[3]; 100 µM,234 (36.2) % of control
same,"II-ADP, % of control (O2 consumption rate)",[3]; 100 µM,23 (16.4) % of control
same,"II-sub, % of control (O2 consumption rate)",[3]; 100 µM,56 (17.7) % of control
same,Potential Mechanism,[3],"Uncoupler at low concentrations (0.16-4 µM), and Uncoupler + inhibitor at high concentrations ( 20-100 µM)"
same,"ATP (HepG2, glucose) IC50",[4]; 5 mM glucose,Inactive
same,"ATP (HepG2, galactose) IC50",[4]; 10 mM galactose,Inactive
same,effect on ATP content (in words),"[5]; 0.5–100μM, 24 h exposure",statistically significant decreases in ATP content
same,minimal effective concentration,"[5]; Caenorhabditis elegans, read-out: LEC LUM: lowest effect concentration for luminescence, a measure of nematode ATP content",100 µM
same,IC50,"[6]; HepG2, 1 h, read-out: HepG2 IC50 Galactose (MMP)",42.8 µM
same,IC50,"[6]; HepG2, 1 h, read-out: HepG2 IC50 Glucose (MMP)",44.6 ± 3.02 µM
same,IC50,[6]; [13],15.5 µM
same,Emax,[6],114%
same,EC50,[7],6.35 ± 2.16 µM
same,effect on larval growth (in words),"[8]; 0.5–100μM, 48 h exposure",did not affect growth
same,MMP assays efficacy (%) qHTS-HepG2,[9],-113±5%
same,IC50,"[9]; read-out: MMP assays IC50 (µM), qHTS-HepG2",13 ± 2.17 µM
same,EC50,[10],25.1 ± 2.05 µM
same,Parkin recruitment,[11],Inactive
CCc1cc(Cc2cc(CC)cc(C(C)(C)C)c2O)c(O)c(C(C)(C)C)c1,IC50,[1]; [12],5.01 ± 4.35 µM
same,MMP assays efficacy (%) Rat Hepatocytes,[1],-78±36%
same,"I-ADP, % of control (O2 consumption rate)",[3]; 20 µM,96 (47.4) % of control
same,"I-sub, % of control (O2 consumption rate)",[3]; 20 µM,105 (16.9) % of control
same,"II-ADP, % of control (O2 consumption rate)",[3]; 20 µM,100 (77.8) % of control
same,"II-sub, % of control (O2 consumption rate)",[3]; 20 µM,97 (29.7) % of control
same,"I-ADP, % of control (O2 consumption rate)",[3]; 100 µM,121 (34.8) % of control
same,"I-sub, % of control (O2 consumption rate)",[3]; 100 µM,175 (20.9) % of control
same,"II-ADP, % of control (O2 consumption rate)",[3]; 100 µM,98 (35.6) % of control
same,"II-sub, % of control (O2 consumption rate)",[3]; 100 µM,134 (19.8) % of control
same,Potential Mechanism,[3],Uncoupler
same,LUM: mean difference in luminescence (ATP content) relative to plate controls,[5]; 0.5 µM,-0.0103
same,LUM: mean difference in luminescence (ATP content) relative to plate controls,[5]; 1 µM,-0.09559
same,LUM: mean difference in luminescence (ATP content) relative to plate controls,[5]; 5 µM,-0.6519
same,LUM: mean difference in luminescence (ATP content) relative to plate controls,[5]; 10 µM,-0.6136
same,LUM: mean difference in luminescence (ATP content) relative to plate controls,[5]; 25 µM,-0.3378
same,LUM: mean difference in luminescence (ATP content) relative to plate controls,[5]; 50 µM,-0.154
same,LUM: mean difference in luminescence (ATP content) relative to plate controls,[5]; 75 µM,0.1094
same,LUM: mean difference in luminescence (ATP content) relative to plate controls,[5]; 100 µM,0.04601
same,IC50,[6]; [13],2 µM
same,Emax,[6],90%
same,EXT: mean difference in nematode size relative to plate controls,[8]; 0.5 µM,0.1174
same,EXT: mean difference in nematode size relative to plate controls,[8]; 1 µM,0.117
same,EXT: mean difference in nematode size relative to plate controls,[8]; 5 µM,0.5074
same,EXT: mean difference in nematode size relative to plate controls,[8]; 10 µM,0.7525
same,EXT: mean difference in nematode size relative to plate controls,[8]; 25 µM,0.8303
same,EXT: mean difference in nematode size relative to plate controls,[8]; 50 µM,1.425
same,EXT: mean difference in nematode size relative to plate controls,[8]; 75 µM,1.246
same,EXT: mean difference in nematode size relative to plate controls,[8]; 100 µM,1.387
same,minimal effective concentration,"[8]; Caenorhabditis elegans, read-out: LEC EXT: lowest effect concentration for extinction, a measure of nematode size",5 µM
same,MMP assays efficacy (%) qHTS-HepG2,[9],-111±18%
same,IC50,[9]; read-out: MMP assays IC50 (µM) qHTS-HepG2,1.22 ± 0.73 µM
